The numbers were not newly measured in patent US11491200B2, “Herbal compositions and methods for the prevention and treatment of nail infections” (Produits Naturels Mondias Inc., priority 2016, dated 2022), which cites them from elsewhere.

In this data set the test system is onychomycosis. The conditions noted are these: mild-to-moderate onychomycosis; versus 3% for placebo.

Regarding `C=C1CCN([C@H](C)[C@](O)(Cn2cncn2)c2ccc(F)cc2F)CC1` [Jublia], the efficacy is 17%.
